The values below come from ChEMBL document CHEMBL4800721, “Data for DCP probe A-446” (2021).

Experiment [1] has as its target Glutaminase liver isoform, mitochondrial (Homo sapiens, UniProt Q9UI32). Put plainly: GLS2 Enzyme activity assay.
For experiment [2], the target named is Glutaminase kidney isoform, mitochondrial (Homo sapiens, UniProt O94925). Briefly: GLS Enzyme activity assay.
The target in experiment [3] is T1, 5-hydroxytryptamine receptor 1D (Homo sapiens, UniProt P28221). The following applies: Compound concentration 10.0 uM.
Experiment [4] deals with 5-hydroxytryptamine receptor 7 (Homo sapiens, UniProt P34969). Put plainly: GPCRScan assay: inhibition of 5-HT7A. More on the design: radioligand conc. used [nm] 5.0 – 6.0, parental cells Stable HEK.
In experiment [5] the target is 5-hydroxytryptamine receptor 6 (Homo sapiens) (UniProt P50406). The following applies: Compound concentration 10.0 uM.
Experiment [6] deals with Sodium-dependent dopamine transporter (Homo sapiens) (UniProt Q01959). Conditions: Compound concentration 10.0 uM.
The target of experiment [7] is Muscarinic acetylcholine receptor M4 (Homo sapiens) (UniProt P08173). The following applies: Compound concentration 10.0 uM.
In experiment [8] the target is Sigma non-opioid intracellular receptor 1 (Homo sapiens) (UniProt Q99720). The following applies: Compound concentration 10.0 uM.
Experiment [9] deals with Alpha-2A adrenergic receptor (Homo sapiens) (UniProt P08913). The following applies: Compound concentration 10.0 uM.
The target in experiment [10] is Histamine H1 receptor (Homo sapiens) (UniProt P35367). Conditions: Compound concentration 10.0 uM.
Experiment [11] concerns the target 5-hydroxytryptamine receptor 1B (Homo sapiens) (UniProt P28222). Conditions: Compound concentration 10.0 uM.
The target in experiment [12] is 5-hydroxytryptamine receptor 2A (Homo sapiens) (UniProt P28223). The following applies: Compound concentration 10.0 uM.
For experiment [13], the target named is Muscarinic acetylcholine receptor M3 (Homo sapiens) (UniProt P20309). Conditions: Compound concentration 10.0 uM.
Experiment [14] concerns the target Alpha-2B adrenergic receptor (Homo sapiens) (UniProt P18089). Conditions: Compound concentration 10.0 uM.
Experiment [15] has as its target Kappa-type opioid receptor (Homo sapiens) (UniProt P41145). Conditions: Compound concentration 10.0 uM.
Experiment [16] addresses 5-hydroxytryptamine receptor 2B (Homo sapiens) (UniProt P41595). Conditions: Compound concentration 10.0 uM.
In experiment [17] the target is Alpha-2C adrenergic receptor (Homo sapiens) (UniProt P18825). The following applies: Compound concentration 10.0 uM.
Experiment [18] addresses 5-hydroxytryptamine receptor 5A (Homo sapiens) (UniProt P47898). Conditions: Compound concentration 10.0 uM.
Experiment [19] concerns the target Muscarinic acetylcholine receptor M5 (Homo sapiens) (UniProt P08912). Conditions: Compound concentration 10.0 uM.
In experiment [20] the target is D(4) dopamine receptor (Homo sapiens) (UniProt P21917). Conditions: Compound concentration 10.0 uM.
The target of experiment [21] is Muscarinic acetylcholine receptor M1 (Homo sapiens) (UniProt P11229). The following applies: Compound concentration 10.0 uM.
For experiment [22], the target named is Beta-1 adrenergic receptor (Homo sapiens) (UniProt P08588). The following applies: Compound concentration 10.0 uM.
For a further experiment, the system named is A549. Briefly: A549 CTG Assay. It counts as cell-based. The following applies: Homo sapiens.
For experiment [23], the target named is 5-hydroxytryptamine receptor 1A (Homo sapiens) (UniProt P08908). Conditions: Compound concentration 10.0 uM.
Experiment [24] addresses T1, 5-hydroxytryptamine receptor 1D. Briefly: GPCRScan assay: inhibition of 5-HT1D. More on the design: radioligand conc. used [nm] 1.0 – 2.0, parental cells HEKT.
Experiment [25] deals with 5-hydroxytryptamine receptor 3A (Homo sapiens) (UniProt P46098). The following applies: Compound concentration 10.0 uM.
Experiment [26] deals with Beta-2 adrenergic receptor (Homo sapiens) (UniProt P07550). The following applies: Compound concentration 10.0 uM.
Experiment [27] deals with Histamine H4 receptor (Homo sapiens) (UniProt Q9H3N8). Conditions: Compound concentration 10.0 uM.
Experiment [28] addresses D(3) dopamine receptor (Homo sapiens) (UniProt P35462). Conditions: Compound concentration 10.0 uM.
Experiment [29] has as its target Histamine H2 receptor (Homo sapiens) (UniProt P25021). Conditions: Compound concentration 10.0 uM.
The target of experiment [30] is Mu-type opioid receptor (Homo sapiens) (UniProt P35372). The following applies: Compound concentration 10.0 uM.
Experiment [31] can be described thus: GPCRScan assay: inhibition of GABA/PBR. Also on record: species or system Rattus norvegicus; radioligand conc. used [nm] 0.3 – 2.0, parental cells brain tissue.
For experiment [32], the target named is 5-hydroxytryptamine receptor 1E (Homo sapiens) (UniProt P28566). Conditions: Compound concentration 10.0 uM.
Experiment [33] has as its target Sigma intracellular receptor 2 (Homo sapiens) (UniProt Q5BJF2). Conditions: Compound concentration 10.0 uM.
The target of experiment [34] is Delta-type opioid receptor (Homo sapiens) (UniProt P41143). Conditions: Compound concentration 10.0 uM.

“And” between values parts separate entries of the source, which are not always exact repeats. Equal values may be shown once. The source made the active and inactive calls. No cut-off for these calls is given here.

T1 sequence (P28221 whole entry): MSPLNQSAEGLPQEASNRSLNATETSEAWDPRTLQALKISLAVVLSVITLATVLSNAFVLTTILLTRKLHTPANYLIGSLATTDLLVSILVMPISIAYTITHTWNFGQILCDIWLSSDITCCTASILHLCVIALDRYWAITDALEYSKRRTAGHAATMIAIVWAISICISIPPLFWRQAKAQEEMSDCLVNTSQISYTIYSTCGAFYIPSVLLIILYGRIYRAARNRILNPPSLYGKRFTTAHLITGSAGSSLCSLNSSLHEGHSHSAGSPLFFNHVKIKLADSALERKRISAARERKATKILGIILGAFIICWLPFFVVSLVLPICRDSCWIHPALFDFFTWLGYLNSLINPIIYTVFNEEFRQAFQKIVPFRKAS
Chain of Glutaminase kidney isoform, mitochondrial (O94925 whole entry, canonical isoform): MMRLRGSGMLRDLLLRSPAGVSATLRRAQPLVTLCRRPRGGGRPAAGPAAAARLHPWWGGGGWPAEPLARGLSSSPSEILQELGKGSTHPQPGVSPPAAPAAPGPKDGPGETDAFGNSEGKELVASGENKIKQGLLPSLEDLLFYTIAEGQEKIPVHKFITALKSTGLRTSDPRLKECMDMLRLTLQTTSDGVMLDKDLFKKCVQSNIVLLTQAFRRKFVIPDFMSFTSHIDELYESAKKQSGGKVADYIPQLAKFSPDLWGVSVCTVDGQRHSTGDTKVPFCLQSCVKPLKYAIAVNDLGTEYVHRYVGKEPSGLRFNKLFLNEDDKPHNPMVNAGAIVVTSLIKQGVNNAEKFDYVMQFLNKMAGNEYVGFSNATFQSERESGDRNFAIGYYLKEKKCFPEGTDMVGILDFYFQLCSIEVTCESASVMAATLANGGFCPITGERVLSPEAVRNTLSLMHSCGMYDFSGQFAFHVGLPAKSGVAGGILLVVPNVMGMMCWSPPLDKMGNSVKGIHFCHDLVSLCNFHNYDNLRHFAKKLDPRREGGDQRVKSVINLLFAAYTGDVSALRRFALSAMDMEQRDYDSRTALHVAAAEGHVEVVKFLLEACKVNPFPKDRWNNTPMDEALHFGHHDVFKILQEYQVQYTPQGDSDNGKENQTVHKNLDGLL
Chain of 5-hydroxytryptamine receptor 7 (P34969 whole entry): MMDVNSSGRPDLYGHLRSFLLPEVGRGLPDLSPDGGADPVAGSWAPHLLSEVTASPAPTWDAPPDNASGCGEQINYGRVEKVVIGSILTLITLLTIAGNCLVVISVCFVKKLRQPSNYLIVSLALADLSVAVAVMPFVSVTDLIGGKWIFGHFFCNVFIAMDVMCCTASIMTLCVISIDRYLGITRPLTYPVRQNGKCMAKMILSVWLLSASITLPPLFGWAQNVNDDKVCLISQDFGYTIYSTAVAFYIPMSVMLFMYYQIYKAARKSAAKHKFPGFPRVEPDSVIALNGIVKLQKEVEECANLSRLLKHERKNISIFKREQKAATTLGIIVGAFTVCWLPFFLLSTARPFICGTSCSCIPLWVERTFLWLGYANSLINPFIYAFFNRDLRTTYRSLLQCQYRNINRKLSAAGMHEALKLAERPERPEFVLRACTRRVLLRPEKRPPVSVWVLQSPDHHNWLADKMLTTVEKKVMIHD
Chain of Glutaminase liver isoform, mitochondrial (Q9UI32 whole entry, canonical isoform): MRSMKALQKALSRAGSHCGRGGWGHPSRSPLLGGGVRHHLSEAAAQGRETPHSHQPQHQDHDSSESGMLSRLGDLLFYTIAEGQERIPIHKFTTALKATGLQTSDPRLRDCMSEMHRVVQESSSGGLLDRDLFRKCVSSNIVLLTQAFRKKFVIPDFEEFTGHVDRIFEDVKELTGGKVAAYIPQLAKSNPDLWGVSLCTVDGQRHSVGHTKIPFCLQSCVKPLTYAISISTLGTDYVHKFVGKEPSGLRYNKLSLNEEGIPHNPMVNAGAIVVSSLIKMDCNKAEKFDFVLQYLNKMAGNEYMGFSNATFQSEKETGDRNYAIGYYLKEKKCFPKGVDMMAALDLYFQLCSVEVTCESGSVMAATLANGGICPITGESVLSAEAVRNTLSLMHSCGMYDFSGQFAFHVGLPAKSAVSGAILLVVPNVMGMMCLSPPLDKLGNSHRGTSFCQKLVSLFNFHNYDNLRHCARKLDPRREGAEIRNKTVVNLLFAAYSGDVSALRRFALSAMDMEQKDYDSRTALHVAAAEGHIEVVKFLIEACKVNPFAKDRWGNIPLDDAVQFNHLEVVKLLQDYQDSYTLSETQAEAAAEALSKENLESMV
Chain of Muscarinic acetylcholine receptor M4 (Homo sapiens) (P08173 whole entry): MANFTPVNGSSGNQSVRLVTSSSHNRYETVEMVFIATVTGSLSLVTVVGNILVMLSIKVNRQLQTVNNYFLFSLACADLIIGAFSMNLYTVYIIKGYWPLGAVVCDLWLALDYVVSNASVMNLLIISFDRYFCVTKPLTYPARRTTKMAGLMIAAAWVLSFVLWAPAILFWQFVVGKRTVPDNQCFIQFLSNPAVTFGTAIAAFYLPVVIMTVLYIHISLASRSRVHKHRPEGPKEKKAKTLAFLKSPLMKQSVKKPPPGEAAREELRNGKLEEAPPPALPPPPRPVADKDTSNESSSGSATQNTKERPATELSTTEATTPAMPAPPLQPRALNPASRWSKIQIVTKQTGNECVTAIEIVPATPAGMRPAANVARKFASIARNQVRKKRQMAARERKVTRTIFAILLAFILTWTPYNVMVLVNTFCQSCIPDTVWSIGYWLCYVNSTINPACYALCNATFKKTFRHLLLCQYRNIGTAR
Chain of 5-hydroxytryptamine receptor 3A (Homo sapiens) (P46098 whole entry): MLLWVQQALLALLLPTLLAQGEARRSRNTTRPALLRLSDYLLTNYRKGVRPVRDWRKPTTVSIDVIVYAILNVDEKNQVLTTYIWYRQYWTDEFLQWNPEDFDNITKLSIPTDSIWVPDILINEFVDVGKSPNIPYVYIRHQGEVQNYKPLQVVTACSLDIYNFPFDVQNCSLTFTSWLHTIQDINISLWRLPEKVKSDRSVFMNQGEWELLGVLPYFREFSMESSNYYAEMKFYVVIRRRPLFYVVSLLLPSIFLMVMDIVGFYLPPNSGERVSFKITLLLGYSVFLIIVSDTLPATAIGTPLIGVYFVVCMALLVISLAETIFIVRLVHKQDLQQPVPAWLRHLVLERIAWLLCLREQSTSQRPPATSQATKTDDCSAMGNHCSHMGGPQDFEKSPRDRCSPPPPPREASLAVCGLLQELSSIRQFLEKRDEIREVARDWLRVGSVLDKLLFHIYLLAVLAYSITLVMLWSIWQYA
Chain of Muscarinic acetylcholine receptor M1 (Homo sapiens) (P11229 whole entry): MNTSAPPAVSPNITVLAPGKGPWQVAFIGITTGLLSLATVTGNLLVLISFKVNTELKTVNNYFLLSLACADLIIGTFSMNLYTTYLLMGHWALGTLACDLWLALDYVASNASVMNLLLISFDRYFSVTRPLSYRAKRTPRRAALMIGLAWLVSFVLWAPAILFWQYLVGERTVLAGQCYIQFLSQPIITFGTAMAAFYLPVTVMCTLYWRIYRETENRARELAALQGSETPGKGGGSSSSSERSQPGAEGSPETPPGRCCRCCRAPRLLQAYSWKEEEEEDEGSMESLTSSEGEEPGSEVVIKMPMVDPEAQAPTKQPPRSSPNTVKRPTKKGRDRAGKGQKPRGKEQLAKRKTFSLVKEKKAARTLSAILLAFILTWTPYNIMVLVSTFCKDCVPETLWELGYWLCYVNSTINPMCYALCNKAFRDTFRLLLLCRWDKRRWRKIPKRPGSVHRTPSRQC
Chain of Sodium-dependent dopamine transporter (Homo sapiens) (Q01959 whole entry): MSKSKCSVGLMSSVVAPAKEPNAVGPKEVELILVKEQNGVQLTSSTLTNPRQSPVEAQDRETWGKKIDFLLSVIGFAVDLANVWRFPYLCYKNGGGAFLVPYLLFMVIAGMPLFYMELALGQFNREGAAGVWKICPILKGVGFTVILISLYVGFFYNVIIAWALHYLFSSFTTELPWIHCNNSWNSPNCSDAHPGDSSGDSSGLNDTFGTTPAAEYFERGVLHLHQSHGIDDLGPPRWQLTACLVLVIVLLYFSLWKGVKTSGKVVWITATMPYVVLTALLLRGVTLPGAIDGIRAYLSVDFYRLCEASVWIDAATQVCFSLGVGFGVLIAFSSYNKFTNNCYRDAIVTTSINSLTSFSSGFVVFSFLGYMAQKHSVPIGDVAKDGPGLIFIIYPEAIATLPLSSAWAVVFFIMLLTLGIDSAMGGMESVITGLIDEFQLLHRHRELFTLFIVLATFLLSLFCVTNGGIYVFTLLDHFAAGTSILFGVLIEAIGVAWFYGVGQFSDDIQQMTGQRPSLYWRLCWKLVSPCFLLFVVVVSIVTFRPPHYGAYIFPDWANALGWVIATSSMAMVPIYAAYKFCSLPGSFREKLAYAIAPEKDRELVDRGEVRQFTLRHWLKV
Chain of 5-hydroxytryptamine receptor 1B (Homo sapiens) (P28222 whole entry): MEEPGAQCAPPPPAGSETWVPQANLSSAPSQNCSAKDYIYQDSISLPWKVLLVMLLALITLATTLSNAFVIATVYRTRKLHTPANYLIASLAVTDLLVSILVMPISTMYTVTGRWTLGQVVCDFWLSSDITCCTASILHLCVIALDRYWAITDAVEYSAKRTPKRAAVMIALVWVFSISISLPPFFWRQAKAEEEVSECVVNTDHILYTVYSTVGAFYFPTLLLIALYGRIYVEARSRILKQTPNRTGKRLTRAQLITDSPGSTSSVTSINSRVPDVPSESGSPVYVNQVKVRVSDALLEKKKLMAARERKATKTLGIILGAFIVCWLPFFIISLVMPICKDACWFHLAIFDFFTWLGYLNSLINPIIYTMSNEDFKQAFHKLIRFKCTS
Chain of Mu-type opioid receptor (Homo sapiens) (P35372 whole entry): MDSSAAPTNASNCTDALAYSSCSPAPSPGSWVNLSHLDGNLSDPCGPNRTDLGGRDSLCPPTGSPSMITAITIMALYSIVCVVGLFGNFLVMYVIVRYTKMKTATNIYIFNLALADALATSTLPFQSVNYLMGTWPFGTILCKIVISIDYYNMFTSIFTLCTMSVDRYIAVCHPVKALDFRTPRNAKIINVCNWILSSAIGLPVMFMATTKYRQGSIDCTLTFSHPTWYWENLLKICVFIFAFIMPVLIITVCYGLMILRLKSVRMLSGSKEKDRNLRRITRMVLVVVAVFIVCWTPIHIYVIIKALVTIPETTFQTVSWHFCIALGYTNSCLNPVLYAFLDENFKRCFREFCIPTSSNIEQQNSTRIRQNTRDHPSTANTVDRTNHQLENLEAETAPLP

By IC50 is commonly meant the concentration at which inhibition is half-maximal. `O=C(Cc1ccccc1)Nc1nnc(N2CC[C@@H]3[C@H]2CN3c2cccnn2)s1` [A-426]: the IC50 in experiment [1] and in experiment [2] was > 30 µM (not active) each time.
What is called inhibition is the drop in the measured response relative to a control, in per cent. In general, pKi refers to the negative decadic logarithm of the Ki, by convention in mol/L. As to `O=C(Cc1ccccc1)Nc1nnc(N2C[C@H]3C[C@@H]2CN3c2cccnn2)s1` [A-446], the inhibition in [3] was 55.1%; in [5], -4.23%; in experiment [6] it was 33.5%; in [7], -9.24%; in [8], 9.03%; in [9] it was 12.2%. Moreover, the inhibition in experiment [10] was 21.3%; in [11], 11.2%; in [12] it was -2.63%; in [13], 9.66%; in [14] it was -6.1%; in [15], 2.85%. Also, the inhibition is 1.83% in experiment [16]; 13.9% in experiment [17]; 4.08% in experiment [18]; 15% in experiment [19]; -7.36% in [20]; 14.6% in experiment [21]. The inhibition in experiment [22] was 1.03%; in [23], 1.9%; in experiment [25] it was 1.72%; in [26] it was -8.05%; in experiment [27], 18.3%; in experiment [28], -3.72%. Besides, the inhibition in experiment [29] is -5.22%; in experiment [30] it was -3.29%; in experiment [32], -1.42%; in [33], 6.42%; in experiment [34] it was -2.96%. The Ki in experiment [4] is greater than 10 µM; in experiment [24] (read-out: Ki), > 10 µM and 6.45 µM; in experiment [24] (read-out: pKi (converted)) it was greater than 10 µM; in experiment [31] it was greater than 10 µM. Also, the pKi in experiment [4] and in [31] was less than 5 throughout. Further, the half-maximal inhibitory concentration (IC50) in the experiment on A549 was 0.0105 µM (active); in experiment [1], > 30 µM (not active); in experiment [2], 0.031 µM (active).
